# Results reported in the OPERA property sets (Mansouri et al. 2018).
# Conditions: not given
row,SMILES,solubility [mM]
1,NCCNCCNCCNCCN,34500
2,OC[C@H]1O[C@H](OC[C@H]2O[C@H](O[C@]3(CO)O[C@H](CO)[C@@H](O)[C@@H]3O)[C@H](O)[C@@H](O)[C@@H]2O)[C@H](O)[C@@H](O)[C@H]1O,402
3,CC(=O)N=c1sc(S(N)(=O)=O)nn1C,14.8
4,Cc1cc(OC(=O)N(C)C)n(-c2ccccc2)n1,8.15
5,CC(C)(C)NC[C@H](O)COc1ccccc1C1CCCC1,24
6,Nc1ccc(-c2ccc(Cl)cc2)cc1,0.023
7,CC=CCCl,11
8,CCC[C@H]1CCCCN1,141
9,O=C(O)c1ccc(Cl)cc1Cl,2.5
10,CC[C@H](Br)C(=O)O,419
11,Cc1cccc(Br)c1,0.3
12,CCC(N)Cc1c[nH]c2ccccc12 (configuration not stated),2.71
13,Nc1nc(=O)c2[nH]c(=O)c(=O)[nH]c2[nH]1,0.00683
14,Cc1cccc(Cl)c1,0.3

# Same assay, conditions: 20 °C
row,SMILES,solubility [mM]
1,Cc1occc1C(=O)Nc1ccccc1,0.497
2,c1ccc(C(c2ccccc2)(c2ccccc2)N2CCOCC2)cc1,6.07e-05
3,O=C(O)[C@H]1CCCC[C@@H]1C(=O)O (relative stereo),11.6
4,Clc1ccc(-c2ccc(Cl)c(Cl)c2Cl)cc1,0.000133
5,CN(C)C(=O)Nc1ccc(Oc2ccc(Cl)cc2)cc1,0.0127
6,CCSCc1ccccc1OC(=O)NC,8.08
7,O=[N+]([O-])c1ccc(Cl)c(Cl)c1Cl,0.115
8,CCNc1nc(NC(C)CC)nc(OC)n1 (configuration not stated),2.71
9,COc1ccc(C(=O)c2cccc(C)c2)cc1C,0.00832
10,COC(=O)C(Cl)Cc1ccc(Cl)cc1 (configuration not stated),0.172
11,Nc1cnn(-c2ccccc2)c(=O)c1Br,0.752
12,COP(=S)(OC)Oc1ccc([N+](=O)[O-])c(Cl)c1,0.134
13,CC1CNCCN1 (configuration not stated),4340
14,O=C(O)CCCCCCCCCCC(=O)O,0.174
15,Cc1ccc(Cl)cc1,0.837
16,COc1ccc2c3c1O[C@H]1[C@@H](O)C=C[C@H]4[C@@H](C2)N(C)CC[C@@]341,30.1
17,c1ccc2c(c1)cnc1ccccc12,1.67
18,CCOC(=O)C(c1c(O)c2ccccc2oc1=O)c1c(O)c2ccccc2oc1=O,0.375
19,COCCCNc1nc(NC(C)C)nc(SC)n1,1.18
20,Nc1ccc(S(=O)(=O)O)cc1,62.4
21,O=c1nc[nH]c2nccnc12,33.8
22,Clc1cc(Cl)c(-c2c(Cl)c(Cl)cc(Cl)c2Cl)cc1Cl,1.14e-05
23,N[C@@H](Cc1ccc(O)c(O)c1)C(=O)O,25.4
24,CC(=O)C=C(C)C,294
25,COc1ccc2c(c1O)[C@]13CCN(C)[C@H](C2)[C@@H]1C=CC(=O)C3,13.4
26,Clc1cc(Cl)c(-c2cccc(Cl)c2Cl)cc1Cl,8.7e-05
27,O=c1c(O)c(-c2ccc(O)cc2O)oc2cc(O)cc(O)c12,0.827
28,Cc1nc(NS(=O)(=O)c2ccc(N)cc2)oc1C,6.27

# Same assay, conditions: 21 °C
row,SMILES,solubility [mM]
1,O=C(O)CCCCCCCCCCCC(=O)O,6.14

# Same assay, conditions: 22 °C
row,SMILES,solubility [mM]
1,CCOP(=S)(OCC)N1C(=O)c2ccccc2C1=O,0.444
2,CCCC(C)C(=O)Nc1ccc(C)c(Cl)c1 (configuration not stated),0.0355
3,CNC(=O)ON=C(CSC)C(C)(C)C,23.8
4,CCCOC=O,250
5,O=C1NC(=O)C(c2ccccc2)(c2ccccc2)N1,0.127
6,Cc1cc(S(=O)(=O)c2ccccc2)ccc1NS(=O)(=O)C(F)(F)F,0.158

# Same assay, conditions: 23 °C
row,SMILES,solubility [mM]
1,Clc1ccccc1-c1cc(Cl)c(Cl)c(Cl)c1Cl,5.17e-05
2,O=c1[nH]cnc2nc[nH]c12,5.14
3,Nc1ccc(C(=O)O)c(O)c1,11

# Same assay, conditions: 24 °C
row,SMILES,solubility [mM]
1,CN(C)CCCN1c2ccccc2CCc2ccccc21,0.065
2,CC=CCCCC,0.153
3,COP(=S)(Oc1cc(Cl)c(Br)cc1Cl)c1ccccc1 (configuration not stated),7.28e-05
4,NC(=O)CCl,962
5,CN1CCCC(CN2c3ccccc3Sc3ccccc32)C1 (configuration not stated),0.018
6,CC(C)N(N=O)C(C)C,99.9
7,CC1CCCCC1C (configuration not stated),0.0748
8,O=C1CN(N=Cc2ccc([N+](=O)[O-])o2)C(=O)N1,0.334
9,CNCCCN1c2ccccc2CCc2ccccc21,0.22

# Same assay, conditions: 25 °C
row,SMILES,solubility [mM]
1,CCCC(C(=O)O)C(=O)O,4790
2,CC(C)C(C)C(C)C,0.0201
3,CCCCCCC,0.0339
4,ONc1ccccc1,259
5,O=C1OCc2ccc([N+](=O)[O-])cc21,2.23
6,CCCC(C)O (configuration not stated),506
7,O=C1C(Cl)=C(Cl)C(=O)C(Cl)=C1Cl,1.02
8,CC(Cl)(Cl)C(=O)O,3510
9,O=C(O)CCCCCCC(=O)O,67.9
10,CC(=O)OCC(=O)[C@@]1(O)CC[C@H]2[C@@H]3CCC4=CC(=O)CC[C@]4(C)[C@H]3C(=O)C[C@@]21C,0.0497
11,OCc1ccccc1,370
12,COP(=S)(NC(C)C)Oc1ccc(Cl)cc1Cl (configuration not stated),0.0159
13,c1ccc(Cc2ccccc2)cc1,0.0838
14,COC(=O)C(=O)OC,511
15,CCCCCCCCCc1ccc(O)cc1,0.0318
16,CCC1(C2=CCCCC2)C(=O)NC(=O)NC1=O,6.77
17,CC(=O)Nc1ccc(OC(C)=O)cc1,12.4
18,CC1CCCC(C)(C)C1 (configuration not stated),0.014
19,Clc1ccc2c(c1)Oc1cc(Cl)ccc1O2,6.6e-05
20,O=S(=O)(O)CS(=O)(=O)O,8900
21,Cc1c2ccccc2c(C)c2ccccc12,0.000271
22,CCOC(=O)c1c[nH]c(=S)[nH]c1=O,7.97
23,CCCN(CCC)C(=O)SCC,1.98

row,SMILES,solubility [mM]
1,CCC(C)(C)c1ccccc1,0.0708
2,C1CCC2CCCCC2C1 (configuration not stated),0.00643
3,CCCC[C@@H](O)CC,34.4
4,CN(C)C(=O)Nc1ccccc1,24.5
5,CCC(C)(C)c1ccc(O)cc1,1.02
6,CC(Oc1ccc(Cl)cc1)C(=O)O (configuration not stated),7.33
7,O=C(O)COc1c(Cl)ccc(Cl)c1Cl,2.4
8,CCOc1ccccc1,4.66
9,Brc1ccc(Br)cc1,0.0848
10,Clc1ccc(Cl)c(-c2cc(Cl)c(Cl)cc2Cl)c1,4.72e-05
11,C=CCc1ccc(O)c(OC)c1,27.4
12,O=C(O)COc1ccc(Cl)cc1Cl,3.06
13,NCCCCCC(=O)O,3850
14,Cc1cccc(C)c1NC(=O)c1cc(S(N)(=O)=O)c(Cl)cc1O,0.163
15,Clc1cc(Cl)c(-c2c(Cl)cc(Cl)cc2Cl)c(Cl)c1,1.13e-06
16,c1cc2cccc3c4cccc5cccc(c(c1)c23)c54,1.59e-06
17,C=CCN(CC=C)C(=O)CCl,113
18,c1ccc2c(c1)Cc1c-2ccc2ccccc12,0.00021
19,CNc1ccccc1,52.4
20,O=C1NCCN1c1ncc([N+](=O)[O-])s1,0.607
21,CCCCCCCCN,1.55
22,O=C=O,33.5
23,Cc1ccc2ccccc2c1,0.173

row,SMILES,solubility [mM]
1,C=CCC1(CC(C)C)C(=O)NC(=O)NC1=O,7.6
2,C=C(C)CCC,0.927
3,Cc1c(N)c(=O)n(-c2ccccc2)n1C,3580
4,FC1(F)C(F)(F)C(F)(F)C1(F)F,0.165
5,Oc1ccc(-c2ccccc2)cc1,0.33
6,Cc1ccccc1S(N)(=O)=O,9.46
7,CCCCCBr,0.841
8,COc1ccccc1,9.62
9,O=C(O)c1ccnc(C(=O)O)c1,14.9
10,CCOP(=O)(OCC)OCC,2740
11,FC(F)(F)C(F)(F)F,0.0564
12,C[C@@H]1CC[C@@]2(OC1)O[C@H]1C[C@H]3[C@@H]4CC=C5C[C@@H](O)CC[C@]5(C)[C@H]4CC[C@]3(C)[C@H]1[C@@H]2C,4.82e-05
13,Clc1cc(Cl)c(-c2ccccc2)c(Cl)c1,0.000978
14,CCC1(C2=CCCCCC2)C(=O)NC(=O)NC1=O,0.999
15,Cc1ccc(C(=O)O)cc1,2.5
16,CCCCCCOC(C)=O,3.54
17,Clc1ccc2c(c1)Oc1ccccc1O2,0.00146
18,C=CCC(C)C,0.57
19,O=C(O)c1cccc(F)c1,10.7
20,COP(=O)(OC)OC,3570
21,CC(=O)CC(C)C,190
22,CCC1(CC)C(=O)NC(=O)N(C)C1=O,9.99
23,Nc1ccc(S(=O)(=O)Nc2ncccn2)cc1,0.308

row,SMILES,solubility [mM]
1,CCCC(C)=O,499
2,CC[C@H](O)C(C)C,197
3,CN1CC(O)N(c2nnc(C(C)(C)C)s2)C1=O (configuration not stated),13.3
4,Fc1ccccc1Br,2.01
5,O=C(O)c1cc([N+](=O)[O-])cc([N+](=O)[O-])c1,6.37
6,O=C(O)CNC(=O)c1ccccc1,20.9
7,CCc1cccs1,2.6
8,Cc1ccccc1N1C(=O)c2cc(S(N)(=O)=O)c(Cl)cc2NC1C (configuration not stated),0.165
9,O=C(Nc1ccccc1)c1ccccc1O,0.258
10,Cc1ccccc1C(=O)O,8.67
11,Cc1ccnc(C)c1,3020
12,NC(=O)CC[C@H](N)C(=O)O,283
13,CC(C)(OO)c1ccccc1,91.3
14,CC=CC(C)O (configuration not stated),1040
15,ClC(Cl)=C(c1ccc(Cl)cc1)c1ccccc1Cl,0.00044
16,CCCCC(N)C(=O)O (racemic),88.5
17,Clc1c(Cl)c(Cl)c(-c2ccccc2)c(Cl)c1Cl,1.23e-05
18,CC(C)C(C)C,0.261
19,Nc1ccc(-c2ccc(N)cc2)cc1,1.75
20,c1ccsc1,35.8

# Same assay, conditions: 27 °C
row,SMILES,solubility [mM]
1,c1cc2c3c(c1)ccc1cccc(c13)C2,0.00578

# Same assay, conditions: 30 °C
row,SMILES,solubility [mM]
1,CN1c2ccccc2Sc2ccc(CC(=O)O)cc21,0.114
2,COc1ccc([N+](=O)[O-])cc1,3.85
3,COP1(=S)OCc2ccccc2O1 (configuration not stated),0.268
4,CC(=O)Nc1nnc(S(N)(=O)=O)s1,4.41
5,C/C=C/C=C/C(=O)O,22.3
6,CCCCC(=O)CCCC,2.55
7,CCCCC1C(=O)N(c2ccccc2)N(c2ccc(O)cc2)C1=O (configuration not stated),0.185
8,C#CC=C,34.3
9,Cc1cccc(Nc2ccccc2C(=O)O)c1C,0.0829
10,O=C(O)CCCCCCCCCCBr,0.2
11,Cc1c(N(C)C)c(=O)n(-c2ccccc2)n1C,235
